Assay results: patent US20050249787A1, “Methods and compositions for reducing oxidative stress in an animal” (Nestec SA, priority 2004, published 2005)
Marks after values point to notes of the source that are not given here.

Columns and labels:
[1] = dog, in vivo
Description: Three groups of twelve dogs (mixed breed Alaskan sled dogs (husky pointer crosses)) were fed commercially available Pro Plan® Performance chicken and rice formula dog food as a basal diet, and each group was fed either: a placebo consisting of about 0.5 g maltodextrin, about 2 mg astaxanthin, or about 400 mg Vitamin E (alpha-tocopherol). Pro Plan® dog food is available from Nestle Purina Pet Care Company in St. Louis, Missouri. The dogs were trained three times a week on an exercise wheel for a period of six weeks. On the sixth week, the dogs rested for four days and then exercised three days in a row. […] Plasma from the blood samples was analyzed for concentrations of malondialdehyde, F-2 isoprostanes, Vitamin E, creatine kinase activity as well as oxygen radical absorption capacity (ORAC). […]
The testing took place over a six day period. […] This sampling schedule was designed to examine changes in the parameters measured during exercise and during recovery. […] The vials were recovered from liquid nitrogen and stored at −70°C. until analyzed. Each plasma sample was analyzed for malondialdehyde concentration using a standard HPLC, F2-isoprostane concentration utilizing a mass spectrometer and standard ELISA, Vitamin E concentration utilizing a standard HPLC, and Oxidative Radical Absorbance Capacity (ORAC test kit, Oxford Co. […]

[2] = system: malondialdehyde; experiment: Plasma malondialdehyde (MDA) in exercising sled dogs (HPLC); type: in vivo
Description: (§1) Three groups of twelve dogs (mixed breed Alaskan sled dogs (husky pointer crosses)) were fed commercially available Pro Plan® Performance chicken and rice formula dog food as a basal diet, and each group was fed either: a placebo consisting of about 0.5 g maltodextrin, about 2 mg astaxanthin, or about 400 mg Vitamin E (alpha-tocopherol). Pro Plan® dog food is available from Nestle Purina Pet Care Company in St. Louis, Missouri. The dogs were trained three times a week on an exercise wheel for a period of six weeks. On the sixth week, the dogs rested for four days and then exercised three days in a row. Blood samples were collected before exercise on day one, immediately after exercise on day three, and at 24 hours and 48 hours after exercise. Plasma from the blood samples was analyzed for concentrations of malondialdehyde, F-2 isoprostanes, Vitamin E, creatine kinase activity as well as oxygen radical absorption capacity (ORAC).
(§2) All the dogs were maintained on the same basal diet (Purina Pro Plan® Performance chicken and rice formula) for one month prior to the onset and the entire duration of the experiment. Each dog was fed as an individual to maintain an optimal body condition score of 4/10.
(§3) Thirty-six sled dogs were housed at the Nestle Purina facility in Salcha, Alaska. The dogs were divided into three groups of 12 dogs so that each group was alike in age, sex and ability distribution. A treatment was randomly assigned to each group by drawing from a hat. Group “A” was assigned about 400 mg Vitamin E/day, group “B” was assigned about 2 mg Astaxanthin/day and group “C” was assigned about 500mg maltodextrin as a placebo. The people responsible for feeding, care, and training of the dogs were blind as to the identity of treatments until the completion of the study. Dogs were treated for six weeks before the onset of testing. They were also trained lightly for two sessions per week during this time period. Training sessions consisted of walking at 14 kilometers per hour for 2 hours in a 40-foot diameter circle tethered to a dog-walking wheel.
(§4) The testing took place over a six day period. On day one, pre-exercise blood samples were drawn from all the dogs. On day two, the dogs ran twelve km while pulling an all terrain vehicle (ATV) weighing 500 pounds. On day three, the dogs walked 16 miles on the dog wheel. On day four, the dogs again pulled the ATV for a distance of 12 kilometers. Immediately after exercise on day four, blood samples were drawn. Additional blood samples were drawn again at 24 hours and 48 hours after exercise. This sampling schedule was designed to examine changes in the parameters measured during exercise and during recovery. Samples were obtained by jugular venipuncture and collected into evacuated glass tubes containing sodium EDTA as an anticoagulant. Once collected they were kept on ice for not more than 10 minutes before they were centrifuged at 10,000 revolutions per minute (RPM) in 4°C. for a period of 10 minutes. The plasma was transferred into freezer vials where the dead space was replaced with gaseous nitrogen to decrease further oxidation during storage. The vials were then capped and immediately quenched in liquid nitrogen. The vials were recovered from liquid nitrogen and stored at −70°C. until analyzed. Each plasma sample was analyzed for malondialdehyde concentration using a standard HPLC, F2-isoprostane concentration utilizing a mass spectrometer and standard ELISA, Vitamin E concentration utilizing a standard HPLC, and Oxidative Radical Absorbance Capacity (ORAC test kit, Oxford Co.
(§5) F2 isoprostane and CK data was evaluated using a two way ANOVA for repeated measures. Post hoc comparisons were made using a student's t test corrected for repeated measures by the Bonneferroni method. Statistical significance was set at p<0.05 . The other data was also evaluated using ANOVA. The abbreviation “se” used with respect to the data in the tables below refers to standard error.

[3] = system: F2-isoprostane; experiment: Plasma F2-isoprostane (F2I) in exercising sled dogs; type: in vivo
Description: as §1, §2, §3, §4, §5

[4] = Plasma total Oxidative Radical Absorptive Capacity (ORAC) in exercising sled dogs; type: in vivo; settings: for ORAC (index of total anti-oxidant status) improvement by supplementation: any of the time periods measured
Description: as §1, §2, §3, §4, §5

[5] = system: creatine kinase; experiment: Plasma creatine kinase (CK) in exercising sled dogs; type: in vivo
Description: as §1, §2, §3, §4, §5

[6] = system: canine lens epithelial cells; experiment: Canine lens epithelial cells stressed with UV light (Example 3); type: cell-based; settings: astaxanthin at physiological levels, UV light stress
From the text: An in vitro experiment may be performed using canine lens epithelial cells supplemented with astaxanthin at physiological levels.

[7] = system: cataract formation; experiment: In vivo cataract formation study, slit-lamp test (Example 4); design: species or system dogs; settings: treatment with astaxanthin, optionally Vitamin E, lutein, zeaxanthin, zinc; vs control; two year study
From the text: In a model study, 40 dogs could be chosen and randomly allocated to either the control group or to a treatment group receiving AAFCO recommended levels of antioxidants. The treatment group would receive astaxanthin and may also receive one or more of Vitamin E, lutein, zeaxanthin and zinc.

[8] = system: peripheral blood mononuclear cells (PBMCs); experiment: In vitro lymphoproliferation of stimulated PBMC (Example 5); type: cell-based, dogs; settings: astaxanthin added to the media during stimulation, vs absence
[9] = system: NK cells; experiment: Natural killer (NK) cell cytotoxicity from supplemented animals (Example 5); type: in vivo, dogs; settings: diet containing astaxanthin vs control animals
Description: (§6) To assess the effect of astaxanthin supplementation on immune function, dogs may be fed a diet containing astaxanthin and/or Vitamin E for 16 weeks. The amount of astaxanthin used may be 0, 1, 5, 10, 20, and 40 mg per animal per day. Various assays may be performed to assess immune function.
In another assay, natural killer (NK) cell cytotoxicity is assessed for NK cells isolated from animals that are fed a diet including astaxanthin supplementation.

[10] = Delayed-type hypersensitivity skin reaction (Example 5); type: in vivo, dogs; settings: diet containing astaxanthin vs control animals
Description: as §6
Delayed-type hypersensitivity may also be assessed in animals given a diet supplemented with astaxanthin. In these assays, control animals and animals fed a diet containing astaxanthin are given cutaneous injections of saline, a mitogen or a vaccine of distemper virus. The animals are then assessed to measure the skin reactions to mitogen, virus and control. In animals fed a diet containing astaxanthin, the skin reactions are more robust for virus and mitogen than that found in control animals.

[11] = Antibody titers against an antigen (Example 5); type: in vivo, dogs; settings: diet containing astaxanthin vs control animals
Description: as §6
Control animals and animals fed a diet containing astaxanthin may also be assessed for the robustness of the immune response against an antigen. For example, antibody titers against an antigen may be measured for control animals and animals fed a diet containing astaxanthin.

[12] = Osteoarthritis diet study, plasma and synovial fluid markers and gait (Example 6); type: in vivo, dogs; settings: 12 weeks
From the text: A diet supplemented with astaxanthin may be shown to reduce inflammation and associated pain in osteoarthritis. […] At 12 weeks of treatment, plasma and synovial fluid samples are taken from each animal and assayed for total antioxidant activity, and levels of malionaldehyde, prostaglandin, isoprostanes, MMPs and TIMPs. Additionally, the gait of the dogs may be assessed using standard force plate analyses.

[13] = cited from earlier work

Row | Structure (SMILES) | Plasma Vitamin E concentration compared between treatment groups [1] | Plasma MDA (mean +/− se) ([2]; 24 hour post) | Plasma MDA (mean +/− se) ([2]; 48 hour post) | Plasma MDA (mean +/− se) ([2]; Post-ex) | Changes in Plasma MDA over time, Change from Baseline ([2]; Pre to 24 hour post) | Changes in Plasma MDA over time, Change from Baseline ([2]; Pre to 48 hour Post) | Changes in Plasma MDA over time, Change from Baseline ([2]; Pre to Post) | Plasma MDA (mean +/− se) ([2]; Pre-ex) | Plasma F2 Isoprostane concentration (mean +/− se) ([3]; 24 hour post) | Plasma F2 Isoprostane concentration (mean +/− se) ([3]; 48 hour post) | Plasma F2 Isoprostane concentration (mean +/− se) ([3]; Post-ex) | Plasma F2 Isoprostane concentration (mean +/− se) ([3]; Pre-ex) | Plasma total ORAC (mean +/− se) ([4]; 24 hour post) | Plasma total ORAC (mean +/− se) ([4]; 48 hour post) | Plasma total ORAC (mean +/− se) ([4]; Post-ex) | Plasma total ORAC (mean +/− se) ([4]; Pre-ex) | ORAC (index of total anti-oxidant status) improvement by supplementation [4] | Plasma Creatine Kinase (mean +/− se) ([5]; 24 hour post) | Plasma Creatine Kinase (mean +/− se) ([5]; 48 hour post) | Plasma Creatine Kinase (mean +/− se) ([5]; Post-ex) | further results
1 | CC1=C(/C=C/C(C)=C/C=C/C(C)=C/C=C/C=C(C)/C=C/C=C(C)/C=C/C2=C(C)C(=O)[C@@H](O)CC2(C)C)C(C)(C)C[C@H](O)C1=O [ATX, astaxanthin] | no significant difference | 0.95 | 1.44 | 1.58 | −0.485* | −0.004 | 0.135 | 1.45 | 90 | 66 | 52 | 167 | 5700 | 4800 | 7460 | 7980 | not improved | 171 | 158 | 152 | Plasma malondialdehyde compared with placebo and Vitamin E groups ([2]; 24 hours post exercise): lower than either the placebo value or the Vitamin E value; F2I values compared to the placebo group ([3]; immediately post-exercise and at 24 hours post-exercise): lower; Plasma Creatine Kinase (mean +/− se) ([5]; Pre-ex): 109; CK values compared with the Vitamin E group ([5]; all time periods but 24 hours post-exercise): lower; cell death [6]: significantly less cell death; free radical formation and lipid peroxidation products [6]: significantly reduce; cataract formation and severity, slit-lamp test [7]: control group has significantly more cataract formation; proliferation of PBMC [8]: increases proliferation of cells significantly more; NK cytotoxicity [9]: significantly increased; skin reactions to virus and mitogen (delayed-type hypersensitivity) [10]: more robust; antibody titers against an antigen [11]: higher antibody titers; isoprostanes, total antioxidant activity and MMPs in plasma and synovial fluid ([12]; 1, 5, 10, 20, or 40 mg per animal per day): decrease; gait, force plate analyses ([12]; compared to controls): significant improvement in gait; in vitro oxygen radical absorptive capacity relative to Vitamin E [13]: 4 times
2 | Cc1c(C)c2c(c(C)c1O)CC[C@@](C)(CCC[C@H](C)CCC[C@H](C)CCCC(C)C)O2 [Vitamin E, alpha-tocopherol, reference compound] | greatest | 1.44 | 1.44 | 1.17 | −0.071 | −0.069 | −0.336* | 1.51 | 130 | 78 | 223 | 144 | 7590 | 4840 | 5850 | 7480 | not improved | 184 | 204 | 208 | malondialdehyde concentrations compared to the placebo group ([2]; during exercise): decreased; F2I value compared to the placebo value ([3]; 24 hour post-exercise): lower; Plasma Creatine Kinase (mean +/− se) ([5]; Pre-ex): 139
